According to article PMC8213057, “Targeting ALK2: An Open Science Approach to Developing Therapeutics for the Treatment of Diffuse Intrinsic Pontine Glioma” (Journal of Medicinal Chemistry, 2020):

Key:
KSR1 = target: T1, KSR1 (Homo sapiens, UniProt Q8IVT5); conditions: 1 μM; Run 1, Run 2
T1 sequence (Q8IVT5 1-923): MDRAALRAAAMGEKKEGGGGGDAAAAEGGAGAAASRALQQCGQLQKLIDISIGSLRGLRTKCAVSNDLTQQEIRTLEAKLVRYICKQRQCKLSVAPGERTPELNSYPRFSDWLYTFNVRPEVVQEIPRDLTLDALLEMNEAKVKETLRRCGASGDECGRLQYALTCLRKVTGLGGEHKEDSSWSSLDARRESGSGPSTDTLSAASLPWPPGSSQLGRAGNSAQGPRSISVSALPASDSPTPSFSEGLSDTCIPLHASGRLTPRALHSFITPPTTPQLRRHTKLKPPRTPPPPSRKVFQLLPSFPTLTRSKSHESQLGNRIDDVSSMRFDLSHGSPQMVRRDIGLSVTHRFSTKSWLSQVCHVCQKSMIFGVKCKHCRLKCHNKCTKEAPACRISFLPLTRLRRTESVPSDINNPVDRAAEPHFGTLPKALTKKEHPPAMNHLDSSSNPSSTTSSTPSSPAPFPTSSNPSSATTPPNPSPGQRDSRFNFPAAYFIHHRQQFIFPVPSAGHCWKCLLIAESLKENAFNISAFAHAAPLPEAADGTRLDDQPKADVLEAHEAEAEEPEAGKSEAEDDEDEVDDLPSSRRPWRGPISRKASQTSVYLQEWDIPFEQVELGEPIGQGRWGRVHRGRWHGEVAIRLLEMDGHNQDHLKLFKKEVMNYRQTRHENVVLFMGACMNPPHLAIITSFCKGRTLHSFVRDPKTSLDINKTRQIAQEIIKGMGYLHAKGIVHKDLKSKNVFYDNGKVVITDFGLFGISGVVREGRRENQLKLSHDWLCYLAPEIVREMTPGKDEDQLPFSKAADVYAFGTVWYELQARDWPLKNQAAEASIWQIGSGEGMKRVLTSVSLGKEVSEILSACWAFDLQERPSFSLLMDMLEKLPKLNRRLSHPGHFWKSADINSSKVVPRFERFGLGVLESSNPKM

P38a/MAPK14 = P38a/MAPK14 (Homo sapiens, UniProt Q16539); conditions: 1 μM; Run 1, Run 2
P38a/MAPK14, sequence (Q16539 whole entry): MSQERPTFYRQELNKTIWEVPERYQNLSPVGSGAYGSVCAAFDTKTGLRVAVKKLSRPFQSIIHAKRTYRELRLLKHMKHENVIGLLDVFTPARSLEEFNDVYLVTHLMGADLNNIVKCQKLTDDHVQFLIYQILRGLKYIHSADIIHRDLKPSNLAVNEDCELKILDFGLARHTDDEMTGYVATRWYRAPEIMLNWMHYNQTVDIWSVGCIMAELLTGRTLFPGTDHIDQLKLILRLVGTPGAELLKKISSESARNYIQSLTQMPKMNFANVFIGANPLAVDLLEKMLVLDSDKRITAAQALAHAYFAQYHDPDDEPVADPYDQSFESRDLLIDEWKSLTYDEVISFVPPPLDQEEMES

MYLK3 = target: T2, MYLK3 (Homo sapiens, UniProt Q32MK0); conditions: 1 μM; Run 1, Run 2
T2 sequence (Q32MK0 1-819): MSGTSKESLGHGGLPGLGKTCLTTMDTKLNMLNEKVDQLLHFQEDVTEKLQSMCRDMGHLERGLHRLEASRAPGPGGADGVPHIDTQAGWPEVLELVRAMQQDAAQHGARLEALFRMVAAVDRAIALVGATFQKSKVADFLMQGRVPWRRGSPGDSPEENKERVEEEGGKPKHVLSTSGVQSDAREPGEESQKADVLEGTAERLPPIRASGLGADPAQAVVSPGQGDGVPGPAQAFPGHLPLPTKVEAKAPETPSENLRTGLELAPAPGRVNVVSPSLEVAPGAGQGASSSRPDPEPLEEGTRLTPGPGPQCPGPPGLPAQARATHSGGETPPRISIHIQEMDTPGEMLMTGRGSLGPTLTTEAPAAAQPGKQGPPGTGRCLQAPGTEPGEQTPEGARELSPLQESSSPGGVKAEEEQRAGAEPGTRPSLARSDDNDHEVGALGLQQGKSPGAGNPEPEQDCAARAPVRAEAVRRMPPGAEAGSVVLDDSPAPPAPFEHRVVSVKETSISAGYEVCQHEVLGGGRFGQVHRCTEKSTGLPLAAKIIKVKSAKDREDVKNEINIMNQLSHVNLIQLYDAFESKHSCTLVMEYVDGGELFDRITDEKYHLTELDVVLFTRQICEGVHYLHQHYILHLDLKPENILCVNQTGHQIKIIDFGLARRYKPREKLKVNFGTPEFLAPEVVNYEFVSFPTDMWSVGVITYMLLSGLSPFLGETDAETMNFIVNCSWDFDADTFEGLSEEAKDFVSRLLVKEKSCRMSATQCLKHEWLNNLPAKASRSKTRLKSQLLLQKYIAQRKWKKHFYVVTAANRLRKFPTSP

KDR/VEGFR2 = KDR/VEGFR2 (Homo sapiens, UniProt P35968); test: biochemical; conditions: read-out: % enzyme activity, 1 μM; Run 1, Run 2
KDR/VEGFR2, sequence (P35968 20-1356): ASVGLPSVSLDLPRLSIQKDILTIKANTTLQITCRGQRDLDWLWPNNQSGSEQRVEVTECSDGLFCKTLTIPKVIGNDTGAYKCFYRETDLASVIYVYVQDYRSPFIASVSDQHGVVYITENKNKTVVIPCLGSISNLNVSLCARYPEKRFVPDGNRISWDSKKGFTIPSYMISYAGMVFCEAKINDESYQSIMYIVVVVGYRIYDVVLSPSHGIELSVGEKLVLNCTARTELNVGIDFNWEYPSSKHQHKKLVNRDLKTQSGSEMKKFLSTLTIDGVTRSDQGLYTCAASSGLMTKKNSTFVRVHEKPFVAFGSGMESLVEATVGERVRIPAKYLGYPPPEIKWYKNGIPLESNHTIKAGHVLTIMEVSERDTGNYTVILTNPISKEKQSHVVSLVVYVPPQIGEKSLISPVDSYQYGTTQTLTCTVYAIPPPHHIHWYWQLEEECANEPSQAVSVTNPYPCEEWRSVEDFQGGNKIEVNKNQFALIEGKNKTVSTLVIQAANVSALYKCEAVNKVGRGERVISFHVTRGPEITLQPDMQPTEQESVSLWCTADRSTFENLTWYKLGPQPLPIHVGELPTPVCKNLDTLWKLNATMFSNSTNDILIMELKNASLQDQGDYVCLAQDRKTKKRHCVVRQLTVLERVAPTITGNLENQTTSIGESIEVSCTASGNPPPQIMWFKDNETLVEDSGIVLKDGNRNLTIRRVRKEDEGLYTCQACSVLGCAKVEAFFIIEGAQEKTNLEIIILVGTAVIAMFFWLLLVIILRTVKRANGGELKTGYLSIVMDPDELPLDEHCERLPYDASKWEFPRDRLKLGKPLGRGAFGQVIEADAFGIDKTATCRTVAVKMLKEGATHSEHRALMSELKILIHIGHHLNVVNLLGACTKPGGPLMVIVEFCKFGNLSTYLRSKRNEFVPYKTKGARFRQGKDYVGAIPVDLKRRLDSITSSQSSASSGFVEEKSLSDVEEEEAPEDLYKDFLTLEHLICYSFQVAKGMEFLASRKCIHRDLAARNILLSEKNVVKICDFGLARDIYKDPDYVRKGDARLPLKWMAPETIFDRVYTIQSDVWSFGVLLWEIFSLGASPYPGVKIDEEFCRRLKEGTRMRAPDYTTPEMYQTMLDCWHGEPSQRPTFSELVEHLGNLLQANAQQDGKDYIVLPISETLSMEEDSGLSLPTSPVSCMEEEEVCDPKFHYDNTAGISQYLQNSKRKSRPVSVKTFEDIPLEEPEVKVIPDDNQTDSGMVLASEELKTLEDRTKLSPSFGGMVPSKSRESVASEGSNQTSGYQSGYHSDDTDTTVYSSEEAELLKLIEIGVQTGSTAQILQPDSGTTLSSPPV

CK1a1L = target: T3, CK1a1L (Homo sapiens, UniProt Q8N752); test: biochemical; conditions: read-out: % enzyme activity, 1 μM; Run 1, Run 2
T3 sequence (Q8N752 1-337): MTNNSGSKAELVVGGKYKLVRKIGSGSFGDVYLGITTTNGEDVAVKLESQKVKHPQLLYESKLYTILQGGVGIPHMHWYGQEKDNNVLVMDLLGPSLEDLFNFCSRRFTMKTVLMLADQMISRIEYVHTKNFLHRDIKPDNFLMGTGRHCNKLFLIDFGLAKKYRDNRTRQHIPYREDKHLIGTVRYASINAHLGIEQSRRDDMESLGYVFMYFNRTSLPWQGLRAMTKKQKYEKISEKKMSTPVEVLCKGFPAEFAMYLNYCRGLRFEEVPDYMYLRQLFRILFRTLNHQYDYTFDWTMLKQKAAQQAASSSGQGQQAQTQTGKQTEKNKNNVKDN

ALK = ALK (Homo sapiens, UniProt Q9UM73); test: biochemical; conditions: read-out: % enzyme activity, 1 μM; Run 1, Run 2
ALK, sequence (Q9UM73 19-1620): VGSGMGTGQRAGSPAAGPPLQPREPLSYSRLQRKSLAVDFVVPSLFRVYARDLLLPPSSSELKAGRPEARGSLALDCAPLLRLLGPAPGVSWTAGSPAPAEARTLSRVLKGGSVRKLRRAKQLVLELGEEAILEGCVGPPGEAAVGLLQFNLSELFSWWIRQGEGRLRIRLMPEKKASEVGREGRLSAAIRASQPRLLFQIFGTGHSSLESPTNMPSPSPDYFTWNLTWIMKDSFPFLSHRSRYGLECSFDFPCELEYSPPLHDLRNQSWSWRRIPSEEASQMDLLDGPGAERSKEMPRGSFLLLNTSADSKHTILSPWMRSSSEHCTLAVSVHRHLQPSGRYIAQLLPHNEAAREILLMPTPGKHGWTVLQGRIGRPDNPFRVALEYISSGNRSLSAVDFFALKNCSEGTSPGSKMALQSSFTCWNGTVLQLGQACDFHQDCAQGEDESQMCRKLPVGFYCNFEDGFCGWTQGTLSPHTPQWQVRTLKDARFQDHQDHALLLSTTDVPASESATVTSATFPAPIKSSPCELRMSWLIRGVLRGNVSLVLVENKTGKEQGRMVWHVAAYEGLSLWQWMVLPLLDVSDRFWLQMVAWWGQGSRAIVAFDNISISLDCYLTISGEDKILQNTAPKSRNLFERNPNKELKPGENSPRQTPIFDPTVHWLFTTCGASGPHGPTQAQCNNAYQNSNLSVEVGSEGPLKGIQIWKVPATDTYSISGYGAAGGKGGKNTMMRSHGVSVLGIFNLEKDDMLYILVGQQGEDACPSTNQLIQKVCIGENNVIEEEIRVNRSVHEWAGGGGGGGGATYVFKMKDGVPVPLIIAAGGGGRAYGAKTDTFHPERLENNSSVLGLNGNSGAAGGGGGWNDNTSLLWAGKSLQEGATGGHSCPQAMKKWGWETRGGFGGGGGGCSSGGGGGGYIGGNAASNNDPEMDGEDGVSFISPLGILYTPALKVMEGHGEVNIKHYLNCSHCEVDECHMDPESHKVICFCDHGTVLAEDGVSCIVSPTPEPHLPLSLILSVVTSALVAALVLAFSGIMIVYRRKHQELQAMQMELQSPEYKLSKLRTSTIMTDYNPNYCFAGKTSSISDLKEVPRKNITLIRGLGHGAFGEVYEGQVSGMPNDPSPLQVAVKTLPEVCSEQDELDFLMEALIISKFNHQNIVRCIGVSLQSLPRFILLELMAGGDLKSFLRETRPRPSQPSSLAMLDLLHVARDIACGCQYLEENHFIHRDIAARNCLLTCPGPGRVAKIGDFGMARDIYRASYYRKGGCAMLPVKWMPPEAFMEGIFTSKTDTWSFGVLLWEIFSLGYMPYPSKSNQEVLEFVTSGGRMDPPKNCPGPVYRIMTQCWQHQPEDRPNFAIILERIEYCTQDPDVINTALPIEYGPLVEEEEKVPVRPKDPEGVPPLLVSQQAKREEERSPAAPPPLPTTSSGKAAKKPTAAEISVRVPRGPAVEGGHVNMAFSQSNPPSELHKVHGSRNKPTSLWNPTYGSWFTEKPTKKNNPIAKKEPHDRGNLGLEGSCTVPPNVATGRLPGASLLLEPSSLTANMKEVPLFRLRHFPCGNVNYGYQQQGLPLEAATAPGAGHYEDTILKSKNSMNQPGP

TSSK3/STK22C = target: T4, TSSK3/STK22C (Homo sapiens, UniProt Q96PN8); test: biochemical; conditions: read-out: % enzyme activity, 1 μM; Run 1, Run 2
T4 sequence (Q96PN8 1-268): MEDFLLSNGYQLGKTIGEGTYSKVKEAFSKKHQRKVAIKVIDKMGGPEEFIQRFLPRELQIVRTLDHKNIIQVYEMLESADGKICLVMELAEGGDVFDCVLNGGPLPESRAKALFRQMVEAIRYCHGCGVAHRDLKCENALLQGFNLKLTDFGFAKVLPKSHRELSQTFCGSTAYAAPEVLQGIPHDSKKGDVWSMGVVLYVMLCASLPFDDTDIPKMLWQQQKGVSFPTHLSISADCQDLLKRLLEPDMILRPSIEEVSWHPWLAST

EPHA4 = EPHA4 (Homo sapiens, UniProt P54764); conditions: 1 μM; Run 1, Run 2
EPHA4, sequence (P54764 20-986): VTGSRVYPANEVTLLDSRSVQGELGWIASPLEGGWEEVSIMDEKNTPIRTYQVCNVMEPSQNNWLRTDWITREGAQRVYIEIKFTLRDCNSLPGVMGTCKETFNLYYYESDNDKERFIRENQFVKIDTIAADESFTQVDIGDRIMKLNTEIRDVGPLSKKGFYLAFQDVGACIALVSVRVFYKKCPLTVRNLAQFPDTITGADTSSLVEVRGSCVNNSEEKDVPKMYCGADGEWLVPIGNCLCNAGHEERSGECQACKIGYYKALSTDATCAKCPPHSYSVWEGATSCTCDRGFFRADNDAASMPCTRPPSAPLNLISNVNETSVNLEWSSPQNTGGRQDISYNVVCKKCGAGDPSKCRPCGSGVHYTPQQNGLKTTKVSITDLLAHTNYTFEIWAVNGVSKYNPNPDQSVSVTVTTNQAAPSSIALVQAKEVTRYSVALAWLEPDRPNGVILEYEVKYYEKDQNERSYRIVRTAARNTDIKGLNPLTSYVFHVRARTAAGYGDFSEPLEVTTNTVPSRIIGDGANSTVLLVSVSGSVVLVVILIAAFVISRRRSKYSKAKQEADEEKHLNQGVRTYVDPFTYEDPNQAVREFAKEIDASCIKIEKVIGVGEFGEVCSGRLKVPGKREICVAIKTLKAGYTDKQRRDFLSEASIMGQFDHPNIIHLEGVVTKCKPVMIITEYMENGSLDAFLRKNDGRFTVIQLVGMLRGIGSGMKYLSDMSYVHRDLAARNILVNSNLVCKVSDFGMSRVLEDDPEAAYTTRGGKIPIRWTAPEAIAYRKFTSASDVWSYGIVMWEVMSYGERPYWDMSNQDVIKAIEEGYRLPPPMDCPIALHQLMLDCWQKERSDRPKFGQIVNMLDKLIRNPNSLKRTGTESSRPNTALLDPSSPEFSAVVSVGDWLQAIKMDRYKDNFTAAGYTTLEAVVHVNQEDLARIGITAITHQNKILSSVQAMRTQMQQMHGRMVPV

PHKg1 = PHKg1 (Homo sapiens, UniProt Q16816); test: biochemical; conditions: read-out: % enzyme activity, 1 μM; Run 1, Run 2
PHKg1, sequence (Q16816 whole entry): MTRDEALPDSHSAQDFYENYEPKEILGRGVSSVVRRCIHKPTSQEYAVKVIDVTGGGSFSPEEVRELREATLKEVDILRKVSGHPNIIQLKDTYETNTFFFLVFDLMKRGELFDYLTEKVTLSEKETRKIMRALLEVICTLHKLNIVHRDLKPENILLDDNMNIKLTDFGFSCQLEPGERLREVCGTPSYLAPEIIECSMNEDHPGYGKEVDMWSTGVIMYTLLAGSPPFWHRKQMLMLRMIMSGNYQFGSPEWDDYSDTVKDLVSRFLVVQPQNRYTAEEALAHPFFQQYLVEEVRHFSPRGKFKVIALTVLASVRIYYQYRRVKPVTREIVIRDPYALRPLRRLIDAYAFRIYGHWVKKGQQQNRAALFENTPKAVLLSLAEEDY

COc1cc(-c2cncc(-c3ccc(N4CCN(C)CC4)cc3)c2C)cc(F)c1C(N)=O [Compound 26a, 2-Fluoro-6-methoxy-4-(4-methyl-5-(4-(4-methylpiperazin-1-yl)phenyl)pyridin-3-yl)benzamide]
% enzyme activity (KSR1): 93.83%
% enzyme activity (P38a/MAPK14): 91.67%
% enzyme activity (MYLK3): 98.90%
remaining activity at 1 µM (KDR/VEGFR2): 95.9%
remaining activity at 1 µM (CK1a1L): 98.4%
remaining activity at 1 µM (ALK): 99.9%
remaining activity at 1 µM (TSSK3/STK22C): 96.6%
% enzyme activity (EPHA4): 91.81%
remaining activity at 1 µM (PHKg1): 85.6%

COc1cc(-c2cncc(-c3ccc(N4C[C@@H](C)N(C)[C@@H](C)C4)cc3)c2C)cc(F)c1C(N)=O [Compound 26c, 2-Fluoro-6-methoxy-4-(4-methyl-5-(4-((3R,5S)-3,4,5-trimethylpiperazin-1-yl)phenyl)pyridin-3-yl)benzamide]
% enzyme activity (KSR1): 95.91%
% enzyme activity (P38a/MAPK14): 96.02%
% enzyme activity (MYLK3): 99.34%
remaining activity at 1 µM (KDR/VEGFR2): 88.4%
remaining activity at 1 µM (CK1a1L): 99.4%
remaining activity at 1 µM (ALK): 101%
remaining activity at 1 µM (TSSK3/STK22C): 96.6%
% enzyme activity (EPHA4): 98.76%
remaining activity at 1 µM (PHKg1): 97%
